Experiments:
RAW264.7 [1] = test: Antiinflammatory activity against murine RAW264.7 cells assessed as inhibition of LPS-induced PGE2 production at 10 nM preincubated for 1 hr followed by LPS stimulation and measured after 24 hrs by EIA relative to control; assay type: functional; settings: Mus musculus
[2] = Cytotoxicity against murine RAW264.7 cells assessed as cell viability at 10 uM relative to control; assay type: cell-based; settings: mouse, read-out: Activity
RAW264.7 [3] = test: Antiinflammatory activity against murine RAW264.7 cells assessed as inhibition of LPS-induced PGE2 production at 10 uM preincubated for 1 hr followed by LPS stimulation and measured after 24 hrs by EIA relative to control; assay type: functional; settings: Mus musculus
RAW264.7 [4] = test: Antiinflammatory activity against murine RAW264.7 cells assessed as inhibition of LPS-induced NO production at 10 uM preincubated for 1 hr followed by LPS stimulation and measured after 24 hrs by Griess assay relative to control; assay type: functional; settings: Mus musculus
RAW264.7 [5] = test: Antiinflammatory activity against murine RAW264.7 cells assessed as inhibition of LPS-induced PGE2 production preincubated for 1 hr followed by LPS stimulation and measured after 24 hrs by EIA; assay type: functional, cell-based; settings: Mus musculus
RAW264.7 [6] = test: Antiinflammatory activity against murine RAW264.7 cells assessed as downregulation of LPS-stimulated COX2 protein expression pretreated for 1 hr followed by LPS addition and measured after 24 hrs by Western blot analysis; assay type: functional, cell-based; settings: Mus musculus
RAW264.7 [7] = test: Antiinflammatory activity against murine RAW264.7 cells assessed as reduction in LPS-stimulated COX2 mRNA expression pretreated for 1 hr followed by LPS addition and measured after 4 hrs by qRT-PCR analysis; assay type: functional, cell-based; settings: Mus musculus
RAW264.7 [8] = test: Antiinflammatory activity against murine RAW264.7 cells assessed as inhibition of LPS-induced NO production at 40 uM preincubated for 1 hr followed by LPS stimulation and measured after 24 hrs by Griess assay relative to control; assay type: functional; settings: Mus musculus

Row | SMILES | inhibition at 0.01 µM (RAW264.7 [1]) | viability at 10 µM [2] | inhibition at 10 µM (RAW264.7 [3]) | inhibition at 10 µM (RAW264.7 [4]) | IC50 (RAW264.7 [5]) | inhibition (RAW264.7 [6]) | inhibition (RAW264.7 [7]) | inhibition at 40 µM (RAW264.7 [8])
1 | CS(=O)(=O)Nc1ccc([N+](=O)[O-])cc1OC1CCCCC1 [NS-398] | 59.5% |  |  |  |  |  |  | 
2 | O=C(NCCCNc1cc(-c2cn(-c3ccccc3)nc2-c2cccc(O)c2)ccn1)c1ccc(F)cc1 |  | 120% | 63.1% | 32.6% | 7.06 µM |  |  | 
3 | O=C(NCCNc1cc(-c2cn(-c3ccccc3)nc2-c2cccc(O)c2)ccn1)c1ccccc1 |  | 105% | 20.9% | 12.2% |  |  |  | 
4 | O=C(NCCNc1cc(-c2cn(-c3ccccc3)nc2-c2cccc(O)c2)ccn1)c1cccc(C(F)(F)F)c1 |  | 135% | 12.2% | 18.6% |  |  |  | 
5 | COc1ccc(C(=O)NCCNc2cc(-c3cn(-c4ccccc4)nc3-c3cccc(OC)c3)ccn2)cc1 |  | 116% | 59.6% | 12.3% |  |  |  | 
6 | O=C(NCCCNc1cc(-c2cn(-c3ccccc3)nc2-c2cccc(O)c2)ccn1)c1ccc(O)cc1 |  | 126% | 31.1% | 39.7% |  |  |  | 
7 | COc1ccc(C(=O)NCCCNc2cc(-c3cn(-c4ccccc4)nc3-c3cccc(OC)c3)ccn2)cc1 |  | 112% | 75.4% | 48.8% | 2.94 µM | Dose-dependent effect | Dose-dependent effect | 
8 | COc1cccc(-c2nn(-c3ccccc3)cc2-c2ccnc(NCCCNC(=O)c3cccc(C(F)(F)F)c3)c2)c1 |  | 115% | 73.8% | 28.8% | 5.62 µM |  |  | 
9 | CC(=N)NCCCC[C@H](N)C(=O)O [L-NIL] |  |  |  |  |  |  |  | 31.5%
10 | COc1cccc(-c2nn(-c3ccccc3)cc2-c2ccnc(NCCCNC(=O)Nc3ccc(Cl)c(Cl)c3)c2)c1 |  | 121% | 77.1% | 38.6% | 4.21 µM | Dose-dependent effect |  | 
11 | O=C(NCCCNc1cc(-c2cn(-c3ccccc3)nc2-c2cccc(O)c2)ccn1)c1ccccc1 |  | 145% | 12.6% | 2.1% |  |  |  | 
12 | COc1cccc(-c2nn(-c3ccccc3)cc2-c2ccnc(NCCNC(=O)Nc3ccc(Cl)c(Cl)c3)c2)c1 |  | 129% | 76.1% | 22% | 4.51 µM |  |  | 
13 | COc1cccc(-c2nn(-c3ccccc3)cc2-c2ccnc(NCCCNC(=O)Nc3cccc(C(F)(F)F)c3)c2)c1 |  | 124% |  | 31.3% |  |  |  | 
14 | COc1cccc(-c2nn(-c3ccccc3)cc2-c2ccnc(NCCCNC(=O)c3ccc(F)cc3)c2)c1 |  | 133% | 28.9% | 18.6% |  |  |  | 
15 | COc1cccc(-c2nn(-c3ccccc3)cc2-c2ccnc(NCCNC(=O)c3ccccc3)c2)c1 |  | 132% | 36.2% | 12.8% |  |  |  | 
16 | COc1cccc(-c2nn(-c3ccccc3)cc2-c2ccnc(NCCCNC(=O)c3ccccc3)c2)c1 |  | 118% | 6.1% | 18.7% |  |  |  | 
17 | COc1cccc(-c2nn(-c3ccccc3)cc2-c2ccnc(NCCNC(=O)Nc3ccccc3)c2)c1 |  | 143% | 53.9% | 12.2% |  |  |  | 
18 | O=C(NCCNc1cc(-c2cn(-c3ccccc3)nc2-c2cccc(O)c2)ccn1)c1ccc(F)cc1 |  | 127% | -1.9% | 20.4% |  |  |  | 
19 | O=C(NCCNc1cc(-c2cn(-c3ccccc3)nc2-c2cccc(O)c2)ccn1)c1ccc(O)cc1 |  | 124% | -56.4% | 34.5% |  |  |  | 
20 | COc1cccc(-c2nn(-c3ccccc3)cc2-c2ccnc(NCCNC(=O)c3cccc(C(F)(F)F)c3)c2)c1 |  | 125% | 58.1% | 19.1% |  |  |  | 
21 | O=C(NCCCNc1cc(-c2cn(-c3ccccc3)nc2-c2cccc(O)c2)ccn1)c1cccc(C(F)(F)F)c1 |  | 123% | 11.6% |  |  |  |  | 
22 | COc1cccc(-c2nn(-c3ccccc3)cc2-c2ccnc(NCCNC(=O)Nc3cccc(C(F)(F)F)c3)c2)c1 |  | 165% | 69.9% | 26.1% | 5.11 µM |  |  | 
23 | COc1cccc(-c2nn(-c3ccccc3)cc2-c2ccnc(NCCNC(=O)c3ccc(F)cc3)c2)c1 |  | 136% | 47.9% | 15.4% |  |  |  | 
24 | COc1cccc(-c2nn(-c3ccccc3)cc2-c2ccnc(NCCCNC(=O)Nc3ccccc3)c2)c1 |  | 143% | 56.3% | 22.2% |  |  |  | 
